Numbers after ± are expanded uncertainties.
Assay: osmotic coefficient (dimensionless); mn = molality of the nth substance listed, in mol/kg
Conditions: 323.15 K, 101 kPa, Liquid, isopiestic method

CCC[n+]1cccc(C)c1.O=S(=O)([N-]S(=O)(=O)C(F)(F)F)C(F)(F)F + CC(C)O
Conditions | osmotic coefficient
m1 = 0.0497 | 0.974 ± 0.001
m1 = 0.0805 | 0.806 ± 0.01
m1 = 0.1081 | 0.756 ± 0.012
m1 = 0.1987 | 0.632 ± 0.018
m1 = 0.2986 | 0.508 ± 0.025
m1 = 0.41 | 0.415 ± 0.029
m1 = 0.5278 | 0.379 ± 0.031
m1 = 0.8355 | 0.334 ± 0.033
m1 = 1.221 | 0.281 ± 0.036
m1 = 1.623 | 0.24 ± 0.038
m1 = 2.072 | 0.217 ± 0.039
m1 = 2.437 | 0.206 ± 0.04
m1 = 2.828 | 0.191 ± 0.04
m1 = 3.326 | 0.184 ± 0.041

CCCC[n+]1cccc(C)c1.O=S(=O)([N-]S(=O)(=O)C(F)(F)F)C(F)(F)F + CCCO
Conditions | osmotic coefficient
m1 = 0.0318 | 0.917 ± 0.004
m1 = 0.0485 | 0.78 ± 0.011
m1 = 0.0788 | 0.72 ± 0.014
m1 = 0.2157 | 0.571 ± 0.021
m1 = 0.3181 | 0.487 ± 0.026
m1 = 0.417 | 0.44 ± 0.028
m1 = 0.527 | 0.389 ± 0.031
m1 = 0.8342 | 0.324 ± 0.034
m1 = 1.24 | 0.274 ± 0.036
m1 = 1.63 | 0.229 ± 0.039
m1 = 2.053 | 0.203 ± 0.04
m1 = 2.439 | 0.191 ± 0.04
m1 = 2.768 | 0.182 ± 0.041
m1 = 3.304 | 0.174 ± 0.041

CC[n+]1cccc(C)c1.O=S(=O)([N-]S(=O)(=O)C(F)(F)F)C(F)(F)F + CCCO
Conditions | osmotic coefficient
m1 = 0.0291 | 0.924 ± 0.004
m1 = 0.0485 | 0.788 ± 0.011
m1 = 0.0836 | 0.704 ± 0.015
m1 = 0.104 | 0.68 ± 0.016
m1 = 0.2111 | 0.57 ± 0.022
m1 = 0.3124 | 0.496 ± 0.025
m1 = 0.4076 | 0.411 ± 0.029
m1 = 0.5148 | 0.354 ± 0.032
m1 = 0.8269 | 0.297 ± 0.035
m1 = 1.23 | 0.237 ± 0.038
m1 = 1.577 | 0.211 ± 0.039
m1 = 2.059 | 0.18 ± 0.041
m1 = 2.455 | 0.161 ± 0.042
m1 = 2.8 | 0.15 ± 0.043

CCC[n+]1cccc(C)c1.O=S(=O)([N-]S(=O)(=O)C(F)(F)F)C(F)(F)F + CCCO
Conditions | osmotic coefficient
m1 = 0.0279 | 0.943 ± 0.003
m1 = 0.0456 | 0.826 ± 0.009
m1 = 0.0782 | 0.699 ± 0.015
m1 = 0.0966 | 0.651 ± 0.017
m1 = 0.2052 | 0.553 ± 0.022
m1 = 0.2936 | 0.504 ± 0.025
m1 = 0.3902 | 0.435 ± 0.028
m1 = 0.5073 | 0.363 ± 0.032
m1 = 0.8376 | 0.294 ± 0.035
m1 = 1.261 | 0.242 ± 0.038
m1 = 1.656 | 0.217 ± 0.039
m1 = 2.045 | 0.196 ± 0.04
m1 = 2.425 | 0.175 ± 0.041
m1 = 2.825 | 0.165 ± 0.042
m1 = 3.31 | 0.159 ± 0.042

CCCC[n+]1cccc(C)c1.O=S(=O)([N-]S(=O)(=O)C(F)(F)F)C(F)(F)F + CC(C)O
Conditions | osmotic coefficient
m1 = 0.0504 | 0.909 ± 0.005
m1 = 0.0795 | 0.805 ± 0.01
m1 = 0.0981 | 0.729 ± 0.014
m1 = 0.2086 | 0.596 ± 0.02
m1 = 0.2979 | 0.536 ± 0.023
m1 = 0.3949 | 0.498 ± 0.025
m1 = 0.4981 | 0.454 ± 0.027
m1 = 0.7859 | 0.384 ± 0.031
m1 = 1.188 | 0.321 ± 0.034
m1 = 1.583 | 0.266 ± 0.037
m1 = 1.975 | 0.244 ± 0.038
m1 = 2.381 | 0.233 ± 0.038
m1 = 2.763 | 0.234 ± 0.038
m1 = 3.323 | 0.225 ± 0.039

CCCC[n+]1cccc(C)c1.O=S(=O)([N-]S(=O)(=O)C(F)(F)F)C(F)(F)F + CCCCO
Conditions | osmotic coefficient
m1 = 0.0539 | 0.692 ± 0.015
m1 = 0.082 | 0.581 ± 0.021
m1 = 0.1023 | 0.508 ± 0.025
m1 = 0.1892 | 0.403 ± 0.03
m1 = 0.3045 | 0.305 ± 0.035
m1 = 0.4112 | 0.259 ± 0.037
m1 = 0.5115 | 0.238 ± 0.038
m1 = 0.8265 | 0.203 ± 0.04
m1 = 1.232 | 0.179 ± 0.041
m1 = 1.58 | 0.155 ± 0.042
m1 = 2.087 | 0.132 ± 0.043
m1 = 2.466 | 0.12 ± 0.044
m1 = 2.878 | 0.112 ± 0.044
m1 = 3.434 | 0.102 ± 0.045

CC[n+]1cccc(C)c1.O=S(=O)([N-]S(=O)(=O)C(F)(F)F)C(F)(F)F + CC(C)O
Conditions | osmotic coefficient
m1 = 0.049 | 0.951 ± 0.003
m1 = 0.0748 | 0.834 ± 0.008
m1 = 0.0982 | 0.752 ± 0.012
m1 = 0.2129 | 0.605 ± 0.02
m1 = 0.3058 | 0.529 ± 0.024
m1 = 0.404 | 0.464 ± 0.027
m1 = 0.5051 | 0.428 ± 0.029
m1 = 0.8164 | 0.335 ± 0.033
m1 = 1.211 | 0.274 ± 0.036
m1 = 1.625 | 0.233 ± 0.038
m1 = 2.011 | 0.21 ± 0.04
m1 = 2.415 | 0.19 ± 0.041
m1 = 2.847 | 0.176 ± 0.041
m1 = 3.335 | 0.174 ± 0.041

CCCC[n+]1cccc(C)c1.O=S(=O)([N-]S(=O)(=O)C(F)(F)F)C(F)(F)F + CCC(C)O
Conditions | osmotic coefficient
m1 = 0.0527 | 0.735 ± 0.013
m1 = 0.0838 | 0.623 ± 0.019
m1 = 0.1035 | 0.581 ± 0.021
m1 = 0.2136 | 0.45 ± 0.028
m1 = 0.3113 | 0.379 ± 0.031
m1 = 0.411 | 0.337 ± 0.033
m1 = 0.5068 | 0.292 ± 0.035
m1 = 0.7963 | 0.235 ± 0.038
m1 = 1.217 | 0.195 ± 0.04
m1 = 1.576 | 0.171 ± 0.041
m1 = 2.032 | 0.149 ± 0.043
m1 = 2.408 | 0.135 ± 0.043
m1 = 2.799 | 0.126 ± 0.044
m1 = 3.261 | 0.119 ± 0.044
